Results taken from US12370237B2, “Lipopeptides for use in treating liver diseases and cardiovascular diseases” (RUPRECHT-KARLS-UNIVERSITAET HEIDELBERG, priority 2012, dated 2025).

How the values were obtained:
ratNTCP-eGFP = molecular target: T1, ratNTCP-eGFP (Rattus norvegicus, UniProt P26435); experiment: MyrB^atto binding to HepG2 ratNTCP-eGFP cells (confocal microscopy)
T1 construct: expressed in transfected cells; host or cells: HepG2
T1 sequence (P26435 1-362): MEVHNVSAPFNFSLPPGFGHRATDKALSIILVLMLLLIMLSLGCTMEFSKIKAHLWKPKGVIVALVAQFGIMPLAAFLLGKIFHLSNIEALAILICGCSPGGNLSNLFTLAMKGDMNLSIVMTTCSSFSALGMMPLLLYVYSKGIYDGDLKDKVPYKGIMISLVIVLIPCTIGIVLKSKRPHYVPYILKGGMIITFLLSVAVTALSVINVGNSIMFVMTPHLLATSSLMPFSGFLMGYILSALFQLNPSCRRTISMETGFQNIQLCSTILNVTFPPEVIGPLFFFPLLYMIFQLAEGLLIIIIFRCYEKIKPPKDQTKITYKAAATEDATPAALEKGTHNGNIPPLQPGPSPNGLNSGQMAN
Experimental: Note the co-localisation of hNTCP/MyrB^atto in microvilli.
Cells were washed again (3×PBS/2% BSA), fixed with PFA, washed with PBS/1 ug/ml Hoechst 3342 and mounted (FluoromountG). NTCP immune staining was achieved after permeabilisation (10 min/RT) with TritonX 100 using a α-SCL10A1/NTCP antibody (Sigma, Germany) diluted 1:750 in PBS/2% BSA (18 h at 4° C.). A polyclonal rabbit antiserum H863 was used for HBcAg-staining, a polyclonal rabbit antiserum for MRP-2 detection, patient-derived serum (M. Roggendorf, Essen) for HδAg. As secondary antibodies goat anti-rabbit or -human, labelled with either AlexaFluor488 or AlexaFluor546 (Invitrogen) was used. Actin staining was performed by the addition of atto633-labelled Phalloidin diluted 1:2000 (ATTO-Tec, Germany) to the second staining step. Images were taken on a Leica DM IRB or Leica SP2 confocal microscope (Leica, Germany), image analysis was performed using ImageJ.
(§1) Taking advantage of the fluorescence of the ratNTCP-eGFP fusion, we confirmed co-localisation of the MyrB/rNtcp-complex in microvilli.

mNtcp = molecular target: T2, mNtcp (Mus musculus, UniProt O08705); experiment: MyrB^atto binding to HepG2^mNtcp cells (FACS)
T2 construct: expressed in transfected cells; host or cells: HepG2
T2 sequence (O08705 1-362): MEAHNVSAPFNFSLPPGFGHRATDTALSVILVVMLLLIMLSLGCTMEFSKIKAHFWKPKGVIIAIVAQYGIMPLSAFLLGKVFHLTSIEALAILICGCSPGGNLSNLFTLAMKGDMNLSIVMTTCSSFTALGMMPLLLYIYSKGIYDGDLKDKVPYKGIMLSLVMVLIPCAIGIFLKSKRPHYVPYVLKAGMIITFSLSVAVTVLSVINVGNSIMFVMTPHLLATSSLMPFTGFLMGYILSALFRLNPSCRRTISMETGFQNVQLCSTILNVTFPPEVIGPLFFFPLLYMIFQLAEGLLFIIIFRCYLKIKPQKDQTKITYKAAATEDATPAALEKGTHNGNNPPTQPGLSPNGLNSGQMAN
Experimental: (§2) Cells were washed (PBS/1% BSA), trypsinized, and suspended in Krebs-Henseleit-Buffer. Flow cytometry was performed on a FACS Canto II (BD Bioscience, Heidelberg, Germany); FlowJo v7.61 software (Treestar, Ashton, USA) was used for analysis. Compensation was performed using BD Compbeats (BD Bioscience, Heidelberg, Germany).
as §1

hNTCP = molecular target: T3, hNTCP (Homo sapiens, UniProt Q14973); experiment: MyrB^atto binding competition assay by FACS in HuH7^hNTCP cells; conditions: 500 μM
T3 construct: host or cells: HuH7
T3 sequence (Q14973 1-349): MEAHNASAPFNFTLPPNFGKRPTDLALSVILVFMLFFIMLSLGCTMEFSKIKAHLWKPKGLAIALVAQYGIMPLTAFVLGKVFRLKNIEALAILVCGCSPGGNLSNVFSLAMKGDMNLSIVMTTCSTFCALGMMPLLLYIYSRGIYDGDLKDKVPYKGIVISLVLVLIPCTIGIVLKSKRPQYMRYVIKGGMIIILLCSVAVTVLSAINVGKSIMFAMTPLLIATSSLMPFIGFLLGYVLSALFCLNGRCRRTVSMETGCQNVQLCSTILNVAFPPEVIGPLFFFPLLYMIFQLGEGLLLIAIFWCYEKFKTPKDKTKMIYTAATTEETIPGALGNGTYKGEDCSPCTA
Experimental: Binding was quantified by FACS analysis.
as §2

HBV = HBV infection of differentiated HepaRG and HuH7^hNTCP cells in presence of NTCP substrates (secreted HBeAg); assay type: cell-based; conditions: for Reduction of HBV infection (HBeAg secretion): 5 μM; for Inhibition of HBV infection as shown by HBeAg secretion: 50 μM and 500 μM

Row | Compound | Binding to rat NTCP-eGFP-expressing cells (ratNTCP-eGFP) | Binding to mNtcp-expressing cells (mNtcp) | Interference with MyrB^atto (preS) binding (hNTCP) | Reduction of HBV infection (HBeAg secretion) (HBV) | Inhibition of HBV infection as shown by HBeAg secretion (HBV)
1 | MyrB^atto: atto-dye-labeled MyrB (atto488/atto565 NHS-ester coupled to lysine residues) | specific and competable binding | specific and competable binding | – | – | –
2 | C[C@H](CCC(=O)NCCS(=O)(=O)O)[C@H]1CC[C@H]2[C@@H]3[C@H](O)C[C@@H]4C[C@H](O)CC[C@]4(C)[C@H]3C[C@H](O)[C@]12C [TC, Taurocholate] | – | – | profoundly interfered with preS-binding | – | –
3 | C[C@H](CCC(=O)NCCS(=O)(=O)O)[C@H]1CC[C@H]2[C@@H]3CC[C@@H]4C[C@H](O)CC[C@]4(C)[C@H]3C[C@H](O)[C@]12C [TDC, Taurodeoxycholate] | – | – | profoundly interfered with preS-binding | Marginal reduction | inhibited HBV-infection
4 | C[C@H](CCC(=O)NCCS(=O)(=O)O)[C@H]1CC[C@H]2[C@@H]3[C@H](O)C[C@@H]4C[C@H](O)CC[C@]4(C)[C@H]3CC[C@]12C [TCDC, Taurochenodeoxy-Cholate] | – | – | profoundly interfered with preS-binding | Marginal reduction | inhibited HBV-infection
